# From paper PMC4872532, “Development of antithrombotic nanoconjugate blocking integrin α2β1-collagen interactions” (Scientific Reports, 2016)
# Where no end group is shown, it is not given here.
# Tests used:
# [1] = UV-VIS quantification of immobilized LWWNSYY; type: physicochemical; conditions: UV-VIS absorption peak at 280 nm; B-PGMA NPs background subtracted
# Source text: The chemical conjugation of LWWNSYY onto the surface of PGMA-ECH NPs was examined using fourier transform infrared spectra (FTIR) spectroscopy (Fig. 2). […] This indicates successful chemical conjugation of LWWNSYY onto the surface of PGMA-ECH NPs through the opening of epoxy group. UV-VIS spectra further confirmed formation of L-PGMA NPs (Fig. S1 in Supporting Information), with an absorption peak at 280 nm corresponding to the characteristic absorption of tryptophan residues in LWWNSYY. […] The formation of LWWNSYY clusters due to its high hydrophobicity was then expected to be inhibited.
# UV-VIS spectra of L-PGMA NPs were obtained by Lambda 35 (Perkin Elmer, USA) UV-VIS spectrophotometer. Spectra were collected within a range of 200–600 nm. The nanoparticles without conjugated LWWNSYY were denoted as B-PGMA NPs. That is, the value of B-PGMA NPs with the same concentration was subtracted as background in analysis. Data were representative of three repeated experiments.
# [2] = system: platelet adhesion on collagen peptide; assay: Platelet solid-phase adhesion assay on collagen peptide; type: cell-based, sheep; conditions: for IC50, concentration required to inhibit half of the specific binding (platelet adhesion): collagen peptide coated 100 μg/mL, inhibitor in normal saline 1 h at 18 °C, washed, platelets 1 h at 18 °C, p-nitrophenyl phosphate read-out 405 nm, L-PGMA NPs concentration = conjugated LWWNSYY
# Source text: (§1) Glycidyl methacrylate (97%) and ethylene glycol dimethacrylate (97%) were purchased from Sigma-Aldrich (St. Louis, MO, USA). Dimethy sulfoxide (DMSO), epichlorohydrin (ECH), EG and sodium borohydride (NaBH4) were of analytical grade from Guangfu Fine Chemical Research Institute (Tianjin, China). The triple helix collagen peptide, with an amino acid sequence of (GPO)2GFOGER(GPO)3, was purchased as HPLC-purified powder with a purity of >95% from ChinaPeptides (Shanghai, China). LWWNSYY was obtained as lyophilized powder with a purity of >95% from GL Biochem (Shanghai, China). Sheep blood containing 0.4% sodium citrate (w/v) was purchased from Ruite Bio-tec (Guangzhou, China). Bovine serum albumin (BSA) was purchased from Sigma (St. Louis, MO, USA). ρ-nitrophenylphosphate (PNPP) was purchased from Aladdin Industrial Corporation (Shanghai, China) with a purity of 98%. Sodium chloride (NaCl), tris (hydroxymethyl) aminomethane (Tris) and other reagents were of analytical grade from Sangon Biotech Co., Ltd. (Shanghai, China).
# Adhesion was determined colorimetrically, following the procedure reported previously. Anticoagulated sheep blood was obtained by the addition of 0.4% sodium citrate (w/v), allowing about five days for the transportation before the tests. Platelet-rich plasma (PRP) was obtained as the supernatant after centrifugation of the anticoagulated sheep blood at 180 g for 20 min at 4 °C. Then platelet was obtained as the precipitate after centrifugation of PRP at 1000 g for 10 min at 4 °C[12], which was suspended in adhesion buffer (TBS containing 0.1% BSA) to prepare platelet suspension buffer for further use. Microtiter HB 96-well plates (Costar, Corning Inc., USA) were coated with 100 μL collagen peptide (100 μg/mL) dissolved in 0.01 M acetic acid for 4 h at 18 °C. Reagents without adhesion were discarded, and the wells were washed by 200 μL TBS (50 mM Tris-HCl, 140 mM NaCl, 2 mM Mg^2+, pH 7.4) for three times. Then, wells were blocked for 1 h by 100 μL of TBS containing 50 mg/mL BSA. After three washes by 200 μL TBS, 100 μL LWWNSYY or L-PGMA NPs with different concentrations dissolved in normal saline was applied to each well and incubated at 18 °C for 1 h. 100 μL platelet suspension buffer were added to each well after three washes to remove non-reacted inhibitors, and plates were incubated at 18 °C for 1 h. Unbound platelets were then discarded, and the wells were washed as above. 150 μL lysis buffer (0.1 M citrate, pH 5.4, containing 0.1% Triton X-100 and 5 mM p-nitrophenyl phosphate) was added to each well. Reaction was terminated after 1 h by addition of 100 μL NaOH (3 M), and plates were read at 405 nm using an automated plate reader (ELX800, BioTek Instruments Inc., USA). […] The effect of binding to BSA or B-PGMA NPs was eliminated. According to the standard above, the absorption value was transformed to inhibition ratio. Data was presented as the mean ± S.D. from three independent experiments (n = 8). Dose-response inhibition ratio curves were fitted using the Hill equation[48][49]. The concentration of LWWNSYY or L-PGMA NPs required to inhibit half of the specific binding, IC50, and the maximum inhibition ratio, IRmax, were calculated based on the Hill equation[50].
# [3] = Particle size and zeta potential by dynamic light scattering; type: physicochemical; conditions: Zetasizer Nano, deionized water, 25 °C, mean ± S.D., N = 3
# Description: Particle size and zeta potential were measured by dynamic light scattering (DLS) in deionized water at room temperature, as shown in Table 1.
# The samples were submitted to size or zeta analysis by injecting them into disposable DLS or zeta potential cuvettes at 25 °C. The results were reported as the average of three repeated experiments.
# ICR mice = assay: Toxicity assay of inhibitors; type: in vivo; conditions: for toxicity: i.v. 2.5 mg/kg, N = 4, 7 days
# Description: S4. Toxicity Assay of Inhibitors
# Eight specific pathogen free (SPF) ICR mice weighing about 18-22 g (HFK Bioscience Co., Ltd., Beijing, China) were randomly divided into two groups (N=4, half males and half females), and then treated with LWWNSYY or L-PGMA NPs (i.v., 2.5mg/10ml/kg) to investigate their toxicity, respectively. After treatment, animals were maintained under standard conditions with food ad libitum and maintained in a 12 h/12 h light/dark cycle at room temperature. Behavior, mortality and any other clinical signs of mice were observed […]
# 1.Bullock, A. N. et al., Thermodynamic stability of wild-type and mutant p53 core domain. P. Natl Acad. Sci.
# [4] = molecular target: Triple Helical Collagen Peptide (GPO)2GFOGER(GPO)3; assay: Isothermal titration calorimetry, binding to triple helical collagen peptide; conditions: L-PGMA in deionized water containing normal saline concentration, 600 μM collagen peptide, 10 °C, mean ± S.D., N = 3
# Sequence of Triple Helical Collagen Peptide (GPO)2GFOGER(GPO)3 (as listed by the source): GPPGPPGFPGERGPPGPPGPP
# Description: ITC experiments were performed to investigate the thermodynamic binding characteristics of L-PGMA NPs on the triple helical collagen peptide (Fig. 4A). The triple helix collagen peptide containing GFOGER recognition sequence was titrated with L-PGMA NPs. The data of LWWNSYY was also examined and used as control.
# as §1
# The binding between collagen peptide and LWWNSYY in normal saline or normal saline containing 25% (v/v) EG was investigated following the procedure reported previously, the concentration of collagen peptide in the cell was 80 μM, while the concentration of LWWNSYY was 1.0 mM. To investigate the binding between collagen peptide and L-PGMA NPs in normal saline, the concentration of L-PGMA NPs in the cell was 48 μM (in full text, the concentration of L-PGMA NPs represents the concentration of conjugated LWWNSYY on the surface of L-PGMA NPs in solution), while the concentration of collagen peptide was 600 μM. All samples were treated by 20 min degassing prior to the examination. Isothermal calorimetric titrations were performed in a titration mode with a 1.425 mL sample cell, using a VP isothermal titration calorimeter (MicroCal, Northampton, MA). 8 μL LWWNSYY was injected over 16 s for 30 times, with a spacing time of 350 s between injections. The reference power was set to 20 μcal/s, and the stirring speed was 307 rpm. To reserve the active triple helical form of collagen peptide, the temperature in ITC cell was kept at 10 °C. […] Titration data were analyzed using MicroCal Origin (Version 7.0). […] Consequently, the integrated enthalpy was calculated from the single-site binding model. Thermodynamics parameters, including Kd, ΔH, TΔS, and Gibbs free energy (ΔG) were calculated.
# [5] = system: carotid artery thrombus formation; assay: FeCl3-induced carotid artery thrombus formation; type: in vivo, Wistar rats; conditions: 0.625 mg/kg i.v., N = 5
# Source text: Adult SPF male Wistar rats weighing 180–220 g were purchased from HFK Bioscience Co. (Beijing, China), and housed in a standard temperature-, light-, and humidity-controlled animal enclosures at the institute of Radiation Medicine in Chinese Academy of Medical Sciences. All rats had free access to food and water, and were acclimated for at least 1 week. The Institute of Radiation Medicine Animal Care and Use Committee approved the protocols for the care and use of animals, and all animal procedures were carried out in accordance with the approved guidelines.
# FeCl3-induced arterial injury in rats was performed following the procedure reported previously. Rats were randomly divided into 4 groups (N = 5) and fasted for 12 h before the surgery. They were anesthetized with 10% chloral hydrate (3 mL/kg, i.p.) and placed on a 37 °C warming pad throughout the experiment. The right carotid artery was exposed by blunt dissection with minimal blood loss, and a Doppler flow probe (Transonic T400, USA) was attached to the artery to monitor blood flow continuously. […] After 20 min, the filter paper was removed, and the vessel was washed with normal saline. The blood flow was monitored continuously for 30 min after injury. At the end of 30-minute period, thrombus size was evaluated by the weight. Immediately after the experiment, the rats were sacrificed by cervical dislocation while still under deep anesthesia. Data are expressed as mean ± S.D. Data were analyzed by one-way ANOVA, followed by Duncan’s post hoc test. Statistical significance was set at p < 0.05.
substance,measurement,setting,value
"LWWNSYY [L-PGMA NPs, LWWNSYY-PGMA nanoparticles conjugate; LWWNSYY immobilized to the surface of poly(glycidyl methacrylate) nanoparticles]",immobilized LWWNSYY,[1],3.2 ± 0.2 mg in 100 mg of PGMA NPs
same,"plateau of inhibition ratio curve, platelet adhesion","[2]; 1–50 μg/mL LWWNSYY, 0.1–40 μg/mL L-PGMA NPs (conjugated LWWNSYY)",100%
same,maximum inhibition ratio (IRmax) of platelet adhesion,"[2]; Hill fit, 1–50 μg/mL LWWNSYY, 0.1–40 μg/mL L-PGMA NPs (conjugated LWWNSYY) in normal saline, 18 °C, mean ± S.D., N = 8",102.6 ± 3.4%
same,"IC50, concentration required to inhibit half of the specific binding (platelet adhesion)","[2]; Hill fit, mean ± S.D., N = 8",1.83 ± 0.29 µg/mL
same,IC50 relative to that of free LWWNSYY,[2]; decreased to this fraction of free LWWNSYY IC50,1/3
same,Hydrodynamic diameter,[3]; DLS,106.6 ± 0.91 nm
same,Polydispersity index,[3]; DLS,0.06 ± 0.02
same,Zeta potential,[3],−32.9 ± 0.57 mV
same,clinical signs,"ICR mice; 2.5mg/10ml/kg i.v., N = 4 (half males, half females), observed 7 days",no abnormal clinical signs
same,toxicity,ICR mice,little toxicity
same,Kd,"[4]; 48 μM L-PGMA NPs in cell (concentration of conjugated LWWNSYY), single-site binding model",3.45 ± 1.06 µM
same,TΔS,[4]; 48 μM L-PGMA NPs in cell,8.44 ± 0.37 kcal/mol
same,ΔG,[4]; 48 μM L-PGMA NPs in cell,-7.09 ± 0.16 kcal/mol
same,ΔH,[4]; 48 μM L-PGMA NPs in cell,1.35 ± 0.21 kcal/mol
same,thrombus weight,"[5]; 15 min before 12% FeCl3, 30 min after injury, mean ± S.D., control 7.41 ± 1.75 mg, LWWNSYY p < 0.01, L-PGMA NPs p < 0.001 compared to control, no significant difference between the two",3.70 ± 0.45 mg
same,occlusion at 30 min,[5]; 15 min before 12% FeCl3,No occlusion was observed
same,"mean blood flow, relative to initial blood flow","[5]; 15 min before 12% FeCl3, at end of 30-min period, p < 0.001 compared to control or LWWNSYY group",about 85%
same,reduction of thrombus weight compared to the control group,[5]; 30 min after injury,~50%
same,reduction of thrombus weight compared to LWWNSYY group,"[5]; 30 min after injury, difference not significant",~15%
same,mean blood flow rate at all time points,[5]; compared to the control or LWWNSYY group,significantly higher
LWWNSYY [LWWNSYY],"IC50, concentration required to inhibit half of the specific binding (platelet adhesion)","[2]; Hill fit, mean ± S.D., N = 8",5.66 ± 1.13 µg/mL
same,toxicity,ICR mice,little toxicity
